Consider one compound from patent US10864246B2, “Method for lowering triglyceride” (Centro De Investigación En Alimentación Y Desarrollo, A.C. …, priority 2011, dated 2020).

Test [1] relates to spontaneously hypertensive rats (SHR). Kind of test: Long-term (4 weeks) consumption in SHR, tail-cuff blood pressure. The format is in vivo, rat. The method, then: SHR were feed ad libitum with milk fermented by L. lactis NRRL B-50571, L. lactis NRRL B-50572, captopril (40 mg/kg body weight) or purified water for four weeks. […] Additionally, milk fermented by L. lactis strains modified SHR lipid profiles. Milk fermented by L. lactis NRRL B-50571 and B-50572 was able to reduce plasma low-density lipoprotein (LDL) cholesterol by 55.4±3 mg/dL and 66.3±4 mg/dL, respectively. Thus, milk fermented by L. lactis strains may be a coadjuvant in the reduction of hypertension and hyperlipidemia and may be used as a functional food for better cardiovascular health. […] Subsequently, samples were frozen at −20° C. All fermented milk samples were daily unfrozen and homogenized (for 20 minutes before use. Thirty-two male SHR were obtained from Harlan Laboratories, Inc., (Indianapolis, Ill., USA). The rats were randomly housed in pairs per cage at 21±2° C. with 12 h light/dark cycles, 52±6% relative humidity and with ad libitum intake of a standard diet (TEKLAD, Harlan Laboratories, USA) during the experiment. SHR (27-28 weeks old and 355±24 g weight) were divided into four groups of eight rats (n=8): purified water (negative control), captopril (proven hypotensive drug, positive control) (40 mg/kg body weight (BW), milk fermented by L. lactis NRRL B-50571 and milk fermented by L. lactis NRRL 50572. All SHR had free access to each treatment during three weeks as part of the protocol. Half of the animals were sacrificed at the end of that period. The rest of the SHR only received purified water during one more week before being sacrificed. A research animal protocol was followed according to the guidelines established by the institutional (CIAD, A.C.) Ethics Committee. The lowering blood pressure effect of milk fermented by specific L. lactis strains on SHR was monitored through time. […] Systolic (SBP) and diastolic (DBP) blood pressures were measured five times on each conscious animal before treatments and every week during the experiment. […]

The test system is the same in test [2]. Kind of test: Single-dose oral administration in SHR, tail cuff blood pressure and heart rate. The class given is in vivo, rat. The note with it: single oral dose 40 mg/kg BW. The method, then: However, the relationship between ACEI and the in vivo action had to be tested. Therefore, the antihypertensive and heart rate (HR) lowering effect of milk fermented by specific L. lactis in a murine model was investigated. Spontaneously hypertensive male rats (SHR) (271±14 g) were randomized into […]: oral administration of milk fermented by L. lactis NRRL B-50571 or L. lactis NRRL B-50572 at 35 or 50 mg protein/kg of body weight (BW). Two more groups were fed with different solutions as controls: a saline solution was the negative control, meanwhile captopril (40 mg/kg BW), a proven ACE inhibitor was the positive control. Blood pressure and heart rate were monitored by the tail cuff method before treatments and 2, 4, 6 and 24 h post oral administration. […] Thus, milk fermented by specific L. lactis strains present potential benefits in the prevention and treatment of cardiovascular diseases associated to hypertension in humans. Samples of specific L. lactis fermented milk (prepared as previously described) for the single dose bioassay were obtained by centrifugation at 20,000×g for 10) min at 0° C. […] SHR were weaned for eight weeks and their systolic blood pressure monitored during this period. […] Systolic blood pressure (SBP), diastolic blood pressure (DBP) as well as heart rate (HR) were monitored before administration and 2, 4, 6 and 24 h post-administration. […]

SMILES strings stand for the structures.

In the case of `C[C@H](CS)C(=O)N1CCC[C@H]1C(=O)O` [captopril], in test [1] (fourth week (only water in last week), fermented milk ad libitum, captopril 40 mg/kg BW), the SBP reduction was found to be 28.1±1.8 mm Hg. For the same compound, the “effect on SBP” value in test [1] (second and third week) was “marked lowering-effect”. The DBP reduction in test [1] (second week, fermented milk ad libitum, captopril 40 mg/kg BW) is recorded as 38.4±8.5 mm Hg; in test [2] (each measurement (2, 4, 6, 24 h)), “maximum DBP reduction”. For the same compound, the “decrease of SBP” value in test [2] (6 h, significantly different from the treatments) is reported as “maximum decrease”.
